Here are results for two compounds from patent publication US20250090823A1, “MICRONEEDLE PATCH FOR ENHANCING ACCUMULATION OF PROTOPORPHYRIN IX IN SOLID TUMOR AND PREPARATION METHOD THEREFOR” (SHENZHEN UNIVERSITY, priority 2022, published 2025).

SMILES strings stand for the structures.

Series [1] has as its system A375 melanoma cells. The series can be described thus: PpIX accumulation (mass) generated in A375 tumor cell by different nanoparticles. Format: cell-based. Particulars: same concentration of 5-ALA (10.8 μg mL^−1). The text has this:
The biological effects of MN-CCPCA in accumulating PpIX in a cell and an in-vivo tumor are studied.

The subject of series [2] is A375 tumor cell. Nature of the series: Dynamic PpIX fluorescence in A375 tumor cell by high-content fluorescence microscopy. It counts as cell-based. Particulars: equal amount of 5-ALA, time after hatching (incubation). The text has this:
The dynamic fluorescence value of PpIX generated by an in-vivo cell is monitored in real time by high-content fluorescence microscopy.

The test system of series [3] is subcutaneous U87MG glioblastoma. The series can be described thus: Tumor-volume inhibition after 3 repeated PDT, subcutaneous U87MG glioblastoma model. It counts as in vivo, mouse. Particulars: 50 mg/kg CCPCA NPs, 3.4 mg/kg 5-ALA, 635 nm laser 10 min at 6, 12, 24 h, 14 days.
Procedure: A specific characterization method is as follows: 20 U87MG model tumor mice with a tumor size of 100 mm^3 are equally divided into 4 experimental groups, namely the MN (+) group with blank microneedle and irradiated with laser, the 5-ALA i.v (+) group with tail intravenous injected with 5-ALA and irradiated with laser, the MN-5-ALA (+) group with 5-ALA microneedle delivery and irradiated with laser, the MN-CCPCA (+) group with transdermal microneedle loaded with 5-ALA and CAT using nanoparticles and irradiated with lase. The doses administered are 50 mg/kg of CCPCA NPs and 3.4 mg/kg of 5-ALA. The mice in the laser treatment group are irradiated with a laser with a wavelength of 635 nm for 10 minutes (200 mW/cm^2) at 6, 12, and 24 h, respectively. The volume of mouse tumor in each group on different days (0, 2, 4, 6, 8, 10, 12, 14) is measured by a vernier caliper.
In series [4] the test system is 4T1 breast cancer subcutaneous tumor. Nature of the series: Tumor-volume inhibition after PDT, 4T1 breast cancer subcutaneous tumor model. It counts as in vivo, mouse. The settings on record: 50 mg/kg CCPCA NPs, 3.4 mg/kg 5-ALA, 635 nm laser 10 min at 12, 24, 36 h, 14 days.
Source text: A specific characterization method is as follows: 20 4T1 model tumor mice with a tumor size of 100 mm^3 are equally divided into 4 experimental groups, namely the MN (+) group with blank microneedle and irradiated with laser, the 5-ALA i.v (+) group with tail intravenous injected with 5-ALA and irradiated with laser, the MN-5-ALA (+) group with 5-ALA microneedle delivery and irradiated with laser, the MN-CCPCA (+) group with transdermal microneedle loaded with 5-ALA and CAT using nanoparticles and irradiated with lase. The mice in the laser treatment group are irradiated with a laser with a wavelength of 635 nm for 10 minutes (200 mW/cm^2) at 12, 24, and 36 h, respectively. The doses administered are 50 mg/kg of CCPCA NPs and 3.4 mg/kg of 5-ALA. The volume of mouse tumor in each group on different days (0, 2, 4, 6, 8, 10, 12, 14) is measured by a vernier caliper.
The conditions of series [5]: background statement; cited from earlier work.

For the compound `NCC(=O)CCC(=O)O` [5-ALA, 5-aminolevulinic acid], the “intracellular PpIX content” value in series [1] was determined as 35.1±3.3 ng/10^6 cells. In addition, in series [2], the “time at which PpIX concentration/intensity in the cell reaches the maximum” value came out at 6 h. Moreover, the “tumor growth inhibition rate” value was determined as 19.1% in series [3] and 27.5% in series [4].

Take `C=CC1=C(C)c2cc3[nH]c(cc4nc(cc5[nH]c(cc1n2)c(C)c5CCC(=O)O)C(CCC(=O)O)=C4C)c(C)c3C=C` [PpIX, Protoporphyrin IX]: in series [5], the “time of rapid clearance of PpIX in vivo” value is ≤ 12 h and the “time to highest peak of PpIX synthesis in vivo” value is reported as “about 4 hours”.
